In one series the test system is CYP1A2. The series can be described thus: CYP induction in human hepatocytes. The class given is in vitro ADME. An excerpt:
(§1) Potential induction of human drug-metabolizing cytochrome P450 enzymes by TRX-E-002-1 was also investigated in human hepatocytes in vitro (VPT3079/2015). No evidence of CYP1A2 induction was observed.

Another series deals with CYP3A4. The series can be described thus: CYP induction in human hepatocytes. The series is classed as in vitro ADME. The following applies: one of three donors.
Source text: as §1

In the next series the test system is CYP2B6. The series can be described thus: CYP induction in human hepatocytes. The following applies: one of three donors. The class given is in vitro ADME.
Source text: as §1

The subject of series [1] is co-cultures which mimic tumour heterogeneity. The series can be described thus: Co-culture studies with cisplatin. The class given is cell-based, human. An excerpt:
(§2) Tumour recurrence post-chemotherapy is caused by the regrowth of the surviving innately drug-resistant cancer stem cells that remain in tumour niches during and post-chemotherapy. The expansion of this chemo-resistant cancer cell population, coupled with upregulation of pro-survival pathways due to drug pressure, is thought to be responsible for the development of chemo-resistant recurrent disease. Further, the inherent heterogeneity of ovarian tumours consists of epithelial cells with varying potential for stemness, and a population of cancer cells with varying mesenchymal status and invasiveness potential. Therefore, to improve survival, a practical approach is the use of novel therapies that can induce cell death in these various subtypes of ovarian cancer cells. TRX-E-002-1 was assessed against ovarian cancer stem cell line OCSC2, characterised by their expression of stem cell markers including CD44 and […] [22]. A major characteristic of these cells is that they are drug resistant, able to form self-renewing spheroids in non-adherent culture, and recreate disseminated drug-resistant ovarian tumours that have a high degree of heterogeneity similar to the clinical profile observed in patients when inoculated into the peritoneal cavity of an immune-compromised mouse.

The subject of series [2] is chemo-resistant CD44+/MyD88+ OCSC clones. The series can be described thus: Cell death in ovarian cancer stem cell clones. The series is classed as cell-based, human. The following applies: grown separately or in co-cultures.
Source text: as §2

`COc1cc([C@@H]2COc3c(ccc(O)c3C)[C@@H]2c2ccc(O)cc2)cc(OC)c1O` [TRX-E-002-1, (+) cis-4-(para-hydroxyphenyl)-7,4′-dihydroxy-3′,5′-dimethoxy-8-methylisoflavan]: the CYP1A2 induction result in the series with CYP1A2 is given as “No evidence”. In the series on CYP3A4, the “induction of CYP3A4” value is “Equivocal evidence”. Also, the “induction of CYP2B6” value in the series on CYP2B6 is on record as “Equivocal evidence”. The “effect on effectiveness of cisplatin” value in series [1] was “enhanced the effectiveness of cisplatin”. Besides, the “induction of cell death” value in series [2] is on record as “able to induce cell death”.

The values are drawn from paper PMC5306062, “Pharmacology and toxicology of the novel investigational agent Cantrixil (TRX-E-002-1)” (Cancer Chemotherapy and Pharmacology, 2016).
